Laboratory results as given in PMC4974772, “In vitro anti-Leishmania activity of tetracyclic iridoids from Morinda lucida, benth” (Tropical Medicine and Health, 2016).
Where “and” joins values, the source holds several entries; their conditions need not be identical. Identical values can stand only once. Like-named read-outs stand apart in the source and are kept apart here.

Columns and labels:
[1] = tested on: Leishmania hertigi promastigotes; assay: In vitro viacount assay (Guava viacount, FACS) on L. hertigi promastigotes; format: cell-based
Protocol: (§1) The field strain of L. enriettii (010) promastigotes, which had been isolated in Ghana, and the lab strain, Leishmania hertigi promastigotes, were used in this study because of their availability. Parasites were cultured in vitro according to conditions established previously. Log phase of parasites (1 × 10^6 parasites/ml) was diluted to a parasitemia of 3 × 10^5 parasites/ml with M199 medium and used for the drug assay. Estimation of parasitemia was done with the Neubauer’s counting chamber.
Leishmania promastigote forms of L. hertigi parasites were seeded and incubated in the presence or absence of (50–0.78 μM) compounds (dissolved in DMSO) for 48 h, after which the Guava reagent for viacount (Millipore) was added to the culture in the ratio of 1:1 and incubated for 30 min. Analysis was performed using the Millipore guava easyCyte 5HT (USA) according to the manufacture’s instruction.
(§2) The aim of the study was to investigate the anti-Leishmania properties of the three novel tetracyclic iridoid compounds previously found to have anti-trypanosome activity. In the determination of the effect of Molucidin, ML-2-3, and ML-F52 on L. hertigi and 010, parasites were challenged with 0–50 μM of each compound for 48 and 96 h to determine MIC and the concentration of compounds that inhibited parasite growth by 50 % (IC50) by microscopy and fluorescence-activated cell sorting (FACS) analysis, respectively. […] All three compounds share same side chains, iridoid tetracyclic skeleton, but differ in their functional group region. Molucidin and ML-F52 are esters while ML-2-3 is carboxylic acid. The functional groups may play a key role in the activity of the compounds against Leishmania.

[2] = tested on: Leishmania 010 (field strain of L. enriettii) promastigotes; assay: MIC by microscopy on Leishmania field strain 010 promastigotes; format: cell-based, L. enriettii (010)
Protocol: as §1
Promastigotes of Leishmania 010 were seeded and incubated in the presence or absence of (50–0.78 μM) compounds for 96 h and the minimum inhibitory concentration (MIC) of the compounds determined by microscopy.
as §2, with “Molucidin and ML-F52 are esters while ML-2-3 is carboxylic acid. The functional groups may play a key role in the activity of the compounds against Leishmania.” left out

[3] = tested on: NBIRGB (normal skin fibroblasts); assay: Cytotoxicity on normal skin fibroblasts NBIRGB; format: cell-based; details: 48 h
Protocol: (§3) Table 2 Selective index of compounds tested for anti-Leishmania activity | column: IC50 (μM), 48 h / ML-2-2; IC50 (μM), 48 h / ML-2-3; IC50 (μM), 48 h / ML-F52; SI / ML-2-2; SI / ML-2-3; SI / ML-F52

[4] = tested on: HF-19 (normal lung fibroblasts); assay: Cytotoxicity on normal lung fibroblasts HF-19; format: cell-based; details: 48 h
Protocol: as §3

Hs-888Lu (normal lung) = assay: Cytotoxicity on normal lung Hs-888Lu; format: cell-based; details: 48 h
Protocol: as §3

[5] = tested on: Chang Liver (normal liver); assay: Cytotoxicity on normal liver Chang Liver; format: cell-based; details: 48 h
Protocol: as §3

L. hertigi parasites = assay: Fluor-microscopy analysis using DAPI (nucleus/kinetoplast count, morphology); format: cell-based, Leishmania hertigi; details: 4 μM, 48 h, DAPI staining
Protocol: Parasites were incubated for 24 h under appropriate conditions (25 °C) with appropriate concentrations of active compounds, Molucidin and ML-F52. Parasites were then harvested and fixed with 4 % paraformaldehyde at room temperature for 5 min. Washing steps were carried out with PBS and PBST (0.1 % Triton X 100 in PBS) at room temperature for 5 min and 15 min, respectively. The parasites were stained with 4’,6-diamidino-2’-phenylindole dihydrochloride (DAPI) (5 μg/ml DAPI in PBS) for 10 min. After washing steps as above, the slides were mounted using parmafluor mounting reagent and covered with cover slips. The slides were observed under the Olympus fluorescent microscope (Olympus BX53) to detect any phenotypic changes in L. hertigi parasites.
To investigate the effect of Molucidin and ML-F52 on the morphology and cell division of L. hertigi, we performed fluor-microscope observation with DAPI staining after incubation of parasite with 4 μM of Molucidin and ML-F52 for 48 h. […] The inhibition of cytokinesis might imply the inability of cells to replicate in the mammalian host and increase the parasite burden. This may prevent the parasites from over running the host-immune and may give the host the edge to clear the infection. […]

| IC50 ([1]; Leishmania hertigi, positive control, strain not stated in footnote, read-out: IC50 of amphotericin B (positive control)) [µg/mL] | IC50 ([1]; promastigotes, 48 h, 50–0.78 μM, Guava viacount FACS, read-out: IC50 after 48 h (L. hertigi)) [µM] | MIC after 96 h (010) ([2]; promastigotes, 50–0.78 μM, microscopy) | SMILES | anti-Leishmania activity ([1]; L. hertigi, 0–50 μM, 48 h) | anti-Leishmania activity ([2]; 010 field strain, 0–50 μM, 96 h) | IC50 [3] [µM] | IC50 [4] [µM] | IC50 (Hs-888Lu (normal lung)) [µM] | IC50 [5] [µM] | effect on parasite morphology (L. hertigi parasites) | 2N/2K cells (two sets of nucleus and kinetoplast) (L. hertigi parasites; microscopic counting, DMSO-treated cells 10 % 2N/2K) |
| --- | --- | --- | --- | --- | --- | --- | --- | --- | --- | --- | --- |
| 0.1 |  |  | C[C@@H]1[C@H](O)[C@@H](C)/C=C/C=C/C=C/C=C/C=C/C=C/C=C/[C@H](O[C@@H]2O[C@H](C)[C@@H](O)[C@H](N)[C@@H]2O)C[C@@H]2O[C@](O)(C[C@@H](O)C[C@@H](O)[C@H](O)CC[C@@H](O)C[C@@H](O)CC(=O)O[C@H]1C)C[C@H](O)[C@H]2C(=O)O [amphotericin B, reference compound] |  |  |  |  |  |  |  |  |
|  | 4.24 | 4.167 µM and 4.17 µM | COC(=O)C1=CO[C@@H]2O[C@H]3/C(=C\c4ccc(O)c(OC)c4)C(=O)O[C@]34C=C[C@H]1[C@H]24 [Molucidin] | had anti-Leishmania activity | had anti-Leishmania activity | 7.11 | 14.2 | 9.29 | 9.34 | induced short stumpy form parasite cells | 30–40% |
